Target: human TrkA receptor (Homo sapiens (Human), UniProt P04629)
Assay: TrkA functional activity, DiscoverX PathHunter assay
Format: cell-based
Details: U2OS cells expressing human TrkA-PK, Shc1-EA and p75NTR; compound 1 h, then NGF at ~80% of maximal response for 3 h; luminescence

Sequence of human TrkA receptor (P04629 33-796): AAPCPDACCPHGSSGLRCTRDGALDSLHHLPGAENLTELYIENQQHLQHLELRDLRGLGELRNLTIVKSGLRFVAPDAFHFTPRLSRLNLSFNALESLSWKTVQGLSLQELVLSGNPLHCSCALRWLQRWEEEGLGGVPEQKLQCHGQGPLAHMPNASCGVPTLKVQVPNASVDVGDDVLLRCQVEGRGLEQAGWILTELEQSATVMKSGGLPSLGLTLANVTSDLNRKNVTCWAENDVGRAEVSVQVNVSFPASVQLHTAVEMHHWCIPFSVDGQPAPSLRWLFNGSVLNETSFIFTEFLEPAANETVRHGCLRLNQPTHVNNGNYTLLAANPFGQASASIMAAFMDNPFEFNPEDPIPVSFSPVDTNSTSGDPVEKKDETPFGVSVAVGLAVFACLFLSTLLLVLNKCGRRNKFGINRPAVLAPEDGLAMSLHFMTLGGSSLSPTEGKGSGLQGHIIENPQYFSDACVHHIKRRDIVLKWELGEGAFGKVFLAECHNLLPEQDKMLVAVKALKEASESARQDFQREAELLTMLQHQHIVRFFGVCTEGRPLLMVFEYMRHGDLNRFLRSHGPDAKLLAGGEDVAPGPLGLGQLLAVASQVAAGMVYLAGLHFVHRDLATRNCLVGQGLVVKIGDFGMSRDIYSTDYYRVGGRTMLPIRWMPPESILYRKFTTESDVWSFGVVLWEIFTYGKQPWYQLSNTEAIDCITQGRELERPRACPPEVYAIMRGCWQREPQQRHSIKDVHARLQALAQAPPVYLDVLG

IC50 [nM]	SMILES
6.1	NC(=O)c1ccc2c(NC(=O)c3cc(-c4ccccn4)c(C(F)(F)F)cc3Cl)n(-c3ccccc3)nc2c1 [Compound 83, 3-({[2-chloro-5-pyridin-2-yl-4-(trifluoromethyl)phenyl]carbonyl}amino)-2-phenyl-2H-indazole-6-carboxamide]
8.8	Cn1ccc(-c2cc(C(=O)Nc3c4cc(C#N)ccc4nn3-c3ccccc3)ccc2C(F)(F)F)n1 [Compound 4, N-(5-cyano-2-phenyl-2H-indazol-3-yl)-3-(1-methyl-1H-pyrazol-3-yl)-4-(trifluoromethyl)benzamide]
0.16	Cn1ccc(-c2cc(C(=O)Nc3c4ncc(C(C)(C)O)cc4nn3-c3ccccc3)c(F)cc2C(F)(F)F)n1 [Compound 41, 2-Fluoro-N-(6-(2-hydroxypropan-2-yl)-2-phenyl-2H-pyrazolo[4,3-b]pyridin-3-yl)-5-(1-methyl-1H-pyrazol-3-yl)-4-(trifluoromethyl)benzamide]
21	CN(C)Cc1ccc2nn(-c3ccccc3)c(NC(=O)c3ccc(C(F)(F)F)c(-c4ccn(C)n4)c3)c2c1 [Compound 68, N-{5-[(dimethylamino)methyl]-2-phenyl-2H-indazol-3-yl}-3-(1-methyl-1H-pyrazol-3-yl)-4-(trifluoromethyl)benzamide]
23	O=C(Nc1c2cc(C(O)C(F)(F)F)ccc2nn1-c1ccccc1)c1cc(-c2ncccn2)c(C(F)(F)F)cc1F (single isomer, unassigned; isomer a) [Compound 54, (R or S)-2-fluoro-N-(2-phenyl-5-(2,2,2-trifluoro-1-hydroxyethyl)-2H-indazol-3-yl)-5-(pyrimidin-2-yl)-4-(trifluoromethyl)benzamide, isomer A]
6.4	Cn1ccc(-c2cc(C(=O)Nc3c4cc(C5(O)CC5)ccc4nn3-c3ccccc3)ccc2C(F)(F)F)n1 [Compound 51, N-[5-(1-hydroxycyclopropyl)-2-phenyl-2H-indazol-3-yl]-3-(1-methyl-1H-pyrazol-3-yl)-4-(trifluoromethyl)benzamide]
4.9	O=C(Nc1c2cc(C(O)C(F)F)ccc2nn1-c1ccccc1)c1cc(-c2ncccn2)c(C(F)(F)F)cc1F (single isomer, unassigned; isomer b) [Compound 59, (R or S)-N[5-(2,2-difluoro-1-hydroxyethyl)-2-phenyl-2H-indazol-3-yl]-2-fluoro-5-pyrimidin-2-yl-4-(trifluoromethyl)benzamide, isomer B]
2.7	Cn1ccc(-c2cc(C(=O)Nc3c4ccc([C@@H](N)C(F)(F)F)cc4nn3-c3ccccc3)ccc2C(F)(F)F)n1 [Compound 100]
3.6	NC(=O)c1ccc2c(NC(=O)c3cc(-c4cc[nH]n4)c(C(F)(F)F)cc3F)n(-c3ccccc3)nc2c1 [Compound 78, 3-({[2-fluoro-5-(1H-pyrazol-3-yl)-4-(trifluoromethyl)phenyl]carbonyl}amino)-2-phenyl-2H-indazole-6-carboxamide]
5.1	CC(O)c1ccc2nn(-c3ccccc3)c(NC(=O)c3cc(-c4cc[nH]n4)c(C(F)(F)F)cc3F)c2n1 (single isomer, unassigned; isomer b) [Compound 32, (R or S)-2-fluoro-N-[5-(1-hydroxyethyl)-2-phenyl-2H-pyrazolo[4,3-b]pyridin-3-yl]-5-(1H-pyrazol-3-yl)-4-(trifluoromethyl)benzamide, isomer B]
13	NC(=O)c1cnc2c(NC(=O)c3ccc(C(F)(F)F)c(-c4ncccn4)c3)n(-c3ccccc3)nc2c1 [Compound 88, 2-phenyl-3-({[3-pyrimidin-2-yl-4-(trifluoromethyl)phenyl]carbonyl}amino)-2H-pyrazolo[4,3-b]pyridine-6-carboxamide]
1.3	Cc1ccccc1-n1nc2cc(C(N)=O)ccc2c1NC(=O)c1cc(-c2ccn(C)n2)c(C(F)(F)F)cc1F [Compound 77, 3-(2-Fluoro-5-(1-methyl-1H-pyrazol-3-yl)-4-(trifluoromethyl)benzamido)-2-(o-tolyl)-2H-indazole-6-carboxamide]
0.88	Cn1ccc(-c2cc(C(=O)Nc3c4nccc(CN5C(=O)CNC5=O)c4nn3-c3ccccc3)c(F)cc2C(F)(F)F)n1 [Compound 99, N-(7-((2,5-dioxoimidazolidin-1-yl)methyl)-2-phenyl-2H-pyrazolo[4,3-b]pyridin-3-yl)-2-fluoro-5-(1-methyl-1H-pyrazol-3-yl)-4-(trifluoromethyl)benzamide]
1.8	Cn1ccc(-c2cc(C(=O)Nc3c4ccc(CN)cc4nn3-c3ccccc3)c(F)cc2C(F)(F)F)n1 [Compound 71, N-[6-(aminomethyl)-2-phenyl-2H-indazol-3-yl]-2-fluoro-5-(1-methyl-1H-pyrazol-3-yl)-4-(trifluoromethyl)benzamide]
0.25	CC(O)c1cnc2c(NC(=O)c3cc(-c4ccn(C)n4)c(C(F)(F)F)cc3F)n(-c3ccccc3)nc2c1 (single isomer, unassigned; isomer a) [Compound 33, (R or S)-2-fluoro-N-[6-(1-hydroxyethyl)-2-phenyl-2H-pyrazolo[4,3-b]pyridin-3-yl]-5-(1-methyl-1H-pyrazol-3-yl)-4-(trifluoromethyl)benzamide, isomer A]
7.9	O=C(Nc1c2ccc(CO)cc2nn1-c1ccccc1)c1cc(-c2ncccn2)c(C(F)(F)F)cc1Cl [Compound 16, 2-chloro-N-[6-(hydroxymethyl)-2-phenyl-2H-indazol-3-yl]-5-pyrimidin-2-yl-4-(trifluoromethyl)benzamide]

Continued, compound first:

SMILES	IC50 [nM]
CC(C)(O)c1cnc2nn(-c3ccccc3)c(NC(=O)c3cc(-c4ncccn4)c(C(F)(F)F)cc3F)c2c1 [Compound 45, 2-fluoro-N-[5-(1-hydroxy-1-methylethyl)-2-phenyl-2H-pyrazolo[3,4-b]pyridin-3-yl]-5-pyrimidin-2-yl-4-(trifluoromethyl)benzamide]	12
CC(O)c1cnc2c(NC(=O)c3cc(-c4ncccn4)c(C(F)(F)F)cc3Cl)n(-c3ccccc3)nc2c1 (single isomer, unassigned; isomer a) [Compound 35, (R or S)-2-chloro-N-[6-(1-hydroxyethyl)-2-phenyl-2H-pyrazolo[4,3-b]pyridin-3-yl]-5-pyrimidin-2-yl-4-(trifluoromethyl)benzamide, isomer A]	1.7
Cc1ccccc1-n1nc2cc(C(N)=O)ccc2c1NC(=O)c1cc(-c2ncccn2)c(C(F)(F)F)cc1F [Compound 93, 3-({[2-fluoro-5-pyrimidin-2-yl-4-(trifluoromethyl)phenyl]carbonyl}amino)-2-(2-methylphenyl)-2H-indazole-6-carboxamide]	32
CC(C)(O)c1cnc2c(NC(=O)c3cc(-c4ncccn4)c(C(F)(F)F)cc3F)n(-c3ccccc3)nc2c1 [Compound 40, 2-Fluoro-N-(6-(2-hydroxypropan-2-yl)-2-phenyl-2H-pyrazolo[4,3-b]pyridin-3-yl)-5-(pyrimidin-2-yl)-4-(trifluoromethyl)benzamide]	3.9
CC(O)c1ccc2nn(-c3ccccc3)c(NC(=O)c3cc(-c4cc[nH]n4)c(C(F)(F)F)cc3F)c2n1 (single isomer, unassigned; isomer a) [Compound 31, (R or S)-2-fluoro-N-[5-(1-hydroxyethyl)-2-phenyl-2H-pyrazolo[4,3-b]pyridin-3-yl]-5-(1H-pyrazol-3-yl)-4-(trifluoromethyl)benzamide, isomer A]	5.2
O=C(Nc1c2ccc(C(O)C(F)F)cc2nn1-c1ccccc1)c1cc(-c2ncccn2)c(C(F)(F)F)cc1F (single isomer, unassigned; isomer b) [Compound 57, (R or S)-N-[6-(2,2-difluoro-1-hydroxyethyl)-2-phenyl-2H-indazol-3-yl]-2-fluoro-5-pyrimidin-2-yl-4-(trifluoromethyl)benzamide, isomer B]	13
NC(=O)c1ccc2nn(-c3ccccc3)c(NC(=O)c3cc(-c4ncccn4)c(C(F)(F)F)cc3F)c2n1 [Compound 80, 3-({[2-fluoro-5-pyrimidin-2-yl-4-(trifluoromethyl)phenyl]carbonyl}amino)-2-phenyl-2H-pyrazolo[4,3-b]pyridine-5-carboxamide]	32
COc1ccc2nn(-c3ccccc3)c(NC(=O)c3cc(-c4ncccn4)c(C(F)(F)F)cc3F)c2n1 [Compound 8, 2-fluoro-N-(5-methoxy-2-phenyl-2H-pyrazolo[4,3-b]pyridin-3-yl)-5-pyrimidin-2-yl-4-(trifluoromethyl)benzamide]	18
CC(C)(O)c1cnc2c(NC(=O)c3cc(-c4cc[nH]n4)c(C(F)(F)F)cc3F)n(-c3ccccc3)nc2c1 [Compound 47, 2-fluoro-N-[6-(1-hydroxy-1-methylethyl)-2-phenyl-2H-pyrazolo[4,3-b]pyridin-3-yl]-5-(1H-pyrazol-3-yl)-4-(trifluoromethyl)benzamide]	2.6
CC(O)c1cnc2c(NC(=O)c3cc(-c4ncccn4)c(C(F)(F)F)cc3F)n(-c3ccccc3)nc2c1 (single isomer, unassigned; isomer a) [Compound 29, (R or S)-2-fluoro-N-[6-(1-hydroxyethyl)-2-phenyl-2H-pyrazolo[4,3-b]pyridin-3-yl]-5-pyrimidin-2-yl-4-(trifluoromethyl)benzamide, isomer A]	1.8
NCc1cnc2c(NC(=O)c3cc(-c4ncccn4)c(C(F)(F)F)cc3F)n(-c3ccccc3)nc2c1 [Compound 66, N-(6-(Aminomethyl)-2-phenyl-2H-pyrazolo[4,3-b]pyridin-3-yl)-2-fluoro-5-(pyrimidin-2-yl)-4-(trifluoromethyl)benzamide]	71
O=C(NCCO)c1ccc2c(NC(=O)c3cc(-c4ncccn4)c(C(F)(F)F)cc3Cl)n(-c3ccccc3)nc2c1 [Compound 90, 3-({[2-chloro-5-pyrimidin-2-yl-4-(trifluoromethyl)phenyl]carbonyl}amino)-N-(2-hydroxyethyl)-2-phenyl-2H-indazole-6-carboxamide]	14
NC(=O)c1cccc2c(NC(=O)c3cc(-c4ncccn4)c(C(F)(F)F)cc3F)n(-c3ccccc3)nc12 [Compound 89, 3-({[2-fluoro-5-pyrimidin-2-yl-4-(trifluoromethyl)phenyl]carbonyl}amino)-2-phenyl-2H-indazole-7-carboxamide]	11
